In article PMC7402526, “An in vitro quantitative systems pharmacology approach for deconvolving mechanisms of drug-induced, multilineage cytopenias” (PLoS Computational Biology, 2020):

Legend:
[1] = system: hematopoietic stem cells (HSCs); assay: Multi-lineage toxicity assay (MLTA), HSCs: concentration-response and QSP model fit; type: cell-based, human; conditions: Homo sapiens, Hematopoietic stem cell, 144 h
Procedure, shortened: (§1)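 Drug was added at time 0 to thawed human bone marrow CD34+ cells in SFEM II plus a cytokine cocktail. After 6 days at 37°C, subsets were counted by surface-marker flow with TruCount beads. Vehicle-normalized, donor-pooled data then fed an Emax model separating anti-proliferative from cell-killing effects.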

[2] = system: multi-potent progenitors (MPPs); assay: MLTA, MPPs: concentration-response and QSP model fit; type: cell-based, human; conditions: Homo sapiens, 144 h
Procedure, shortened: as §1

[3] = system: granulocyte-macrophage progenitor (GMPs); assay: MLTA, GMPs: concentration-response and QSP model fit; type: cell-based, human; conditions: Homo sapiens, 144 h, 6 days, normalized to vehicle control, read-out: GMPs normalized cell count
Procedure, shortened: as §1

granulocytes (Gran-lin) = assay: MLTA, Gran: concentration-response and QSP model fit; type: cell-based, human; conditions: Homo sapiens, 144 h
Procedure, shortened: as §1

monocytes (monocyte-lin) = assay: MLTA, Mono: concentration-response and QSP model fit; type: cell-based, human; conditions: Homo sapiens, Monocyte, 144 h
Procedure, shortened: as §1

[4] = system: lymphocyte progenitors (LymP); assay: MLTA, LymP: concentration-response and QSP model fit; type: cell-based, human; conditions: Homo sapiens, Lymphocyte, 144 h
Procedure, shortened: as §1

B cells (B-lin) = assay: MLTA, B-lin: concentration-response and QSP model fit; type: cell-based, human; conditions: Homo sapiens, B-cell, 144 h
Procedure, shortened: as §1

[5] = system: total dead cells (totalDeadCells); assay: MLTA, total dead cells concentration-response; type: cell-based; conditions: Homo sapiens, 144 h, 6 days, normalized to vehicle control, read-out: total_dead normalized cell count
Protocol: A custom optimized cytokine cocktail was developed using commercially available cytokines (Peprotech, New Jersey) to facilitate simultaneous multi-lineage differentiation and self-renewal of freeze-thawed primary human bone marrow-derived CD34+ cells in SFEM II media (cells and media from StemCell Technologies, Vancouver). Cultures were carried out in ultra-low attachment 96-well plates (Corning, New York) with test article added on day 0 and cultured at 37°C, 85% relative humidity, and 5% CO2 for six days before interrogating drug impact via 17-parameter flow cytometry.
The flow cytometry panel used to define hematopoietic subsets was composed of CD34-PECy7, CD90-PECY5, CD38-AF488, CD371-PE, CD45Ra-BV421, CD14-BV605, CD42b-AF647, CD10-PEDazzle594, CD235a-PerCPCy5.5 (BioLegend, California), CD15-BUV395, CD41a-APCH7, CD71-BV786 (BD Biosciences, California), and DAPI for dead cell exclusion (ThermoFisher, California). In short, Day 6 cells were harvested, FcR-blocked (FcR binding inhibitor, ThermoFisher), surface-stained, then analyzed in a buffer containing TruCount Control Beads using a BD LSR Fortessa SORP fitted with a high-throughput sampler (BD Biosciences, California). Data was analyzed in Diva 6.0.2 and exported to CSV where after all cell data was transformed to cell per mL then normalized on a per-donor basis to untreated control wells to determine drug impact.
Donor material was collected and cultured as described above. The number of replicate donor samples per drug ranged from 2–7 and varied per drug (S1 Table). Drug treatment was added at time 0 and cells were maintained in culture for 6 days. Concentrations tested for each drug compound are contained in S1 Table. Concentrations were selected to span a range that is clinically useful. Following treatment, cell populations were measured using flow cytometry. We extracted cell counts from flow cytometry data, normalized to bead counts, and corrected for well volume.
Each well was normalized to the average of six vehicle control wells. For drugs that were tested across multiple runs of the assay, vehicle-normalized donor data were pooled, and we used the average of these pooled data for further modeling. Normalized data used as model inputs are included in S1 Table.

`O=C1CCC(N2C(=O)c3ccccc3C2=O)C(=O)N1` (centres unmarked) [thalidomide] showed an activity at 0.0002 µM ([1]; dose 0.2 nM, 6 days, normalized to vehicle control, read-out: HSCs normalized cell count) of 67.6%, an activity at 0.001 µM ([1]; dose 1 nM, 6 days, normalized to vehicle control, read-out: HSCs normalized cell count) of 92.6% and an activity at 0.005 µM ([1]; dose 5 nM, 6 days, normalized to vehicle control, read-out: HSCs normalized cell count) of 109%. For the same compound, the activity at 0.025 µM ([1]; dose 25 nM, 6 days, normalized to vehicle control, read-out: HSCs normalized cell count) was 96.3%, the activity at 0.1 µM ([1]; dose 100 nM, 6 days, normalized to vehicle control, read-out: HSCs normalized cell count) was 84.9% and the activity at 0.5 µM ([1]; dose 500 nM, 6 days, normalized to vehicle control, read-out: HSCs normalized cell count) was 99.8%. The activity at 2.5 µM ([1]; dose 2500 nM, 6 days, normalized to vehicle control, read-out: HSCs normalized cell count) was 113%, the Emax ([1]; parameter from QSP model fitting, read-out: Emax_drug_HSC) was 0.000374% and the activity at 0.0002 µM ([2]; dose 0.2 nM, 6 days, normalized to vehicle control, read-out: MPPs normalized cell count) was 91.8%. The activity at 0.001 µM ([2]; dose 1 nM, 6 days, normalized to vehicle control, read-out: MPPs normalized cell count) was 75.9%, the activity at 0.005 µM ([2]; dose 5 nM, 6 days, normalized to vehicle control, read-out: MPPs normalized cell count) was 79% and the activity at 0.025 µM ([2]; dose 25 nM, 6 days, normalized to vehicle control, read-out: MPPs normalized cell count) was 87.5%. For the same compound, the activity at 0.1 µM ([2]; dose 100 nM, 6 days, normalized to vehicle control, read-out: MPPs normalized cell count) was 76.7%, the activity at 0.5 µM ([2]; dose 500 nM, 6 days, normalized to vehicle control, read-out: MPPs normalized cell count) was 78.1% and the activity at 2.5 µM ([2]; dose 2500 nM, 6 days, normalized to vehicle control, read-out: MPPs normalized cell count) was 91.5%. It also gave an Emax ([2]; parameter from QSP model fitting, read-out: Emax_drug_MPP) of 0.00111%, an activity at 0.0002 µM ([3]; dose 0.2 nM) of 92.4% and an activity at 0.001 µM ([3]; dose 1 nM) of 107%. It also gave an activity at 0.005 µM ([3]; dose 5 nM) of 100%, an activity at 0.025 µM ([3]; dose 25 nM) of 112% and an activity at 0.1 µM ([3]; dose 100 nM) of 97%. For the same compound, the activity at 0.5 µM ([3]; dose 500 nM) was 104%, the activity at 2.5 µM ([3]; dose 2500 nM) was 99% and the activity at 0.0002 µM (granulocytes (Gran-lin); dose 0.2 nM, 6 days, normalized to vehicle control, read-out: Gran normalized cell count) was 85%. The activity at 0.001 µM (granulocytes (Gran-lin); dose 1 nM, 6 days, normalized to vehicle control, read-out: Gran normalized cell count) was 100%, the activity at 0.005 µM (granulocytes (Gran-lin); dose 5 nM, 6 days, normalized to vehicle control, read-out: Gran normalized cell count) was 110% and the activity at 0.025 µM (granulocytes (Gran-lin); dose 25 nM, 6 days, normalized to vehicle control, read-out: Gran normalized cell count) was 126%. For the same compound, the activity at 0.1 µM (granulocytes (Gran-lin); dose 100 nM, 6 days, normalized to vehicle control, read-out: Gran normalized cell count) was 94.9%, the activity at 0.5 µM (granulocytes (Gran-lin); dose 500 nM, 6 days, normalized to vehicle control, read-out: Gran normalized cell count) was 92.7% and the activity at 2.5 µM (granulocytes (Gran-lin); dose 2500 nM, 6 days, normalized to vehicle control, read-out: Gran normalized cell count) was 102%. For the same compound, the Emax (granulocytes (Gran-lin); parameter from QSP model fitting, read-out: Emax_drug_Gran) was 0.01%, the activity at 0.0002 µM (monocytes (monocyte-lin); dose 0.2 nM, 6 days, normalized to vehicle control, read-out: Mon normalized cell count) was 83.3% and the activity at 0.001 µM (monocytes (monocyte-lin); dose 1 nM, 6 days, normalized to vehicle control, read-out: Mon normalized cell count) was 94%. It also gave an activity at 0.005 µM (monocytes (monocyte-lin); dose 5 nM, 6 days, normalized to vehicle control, read-out: Mon normalized cell count) of 89.4%, an activity at 0.025 µM (monocytes (monocyte-lin); dose 25 nM, 6 days, normalized to vehicle control, read-out: Mon normalized cell count) of 106% and an activity at 0.1 µM (monocytes (monocyte-lin); dose 100 nM, 6 days, normalized to vehicle control, read-out: Mon normalized cell count) of 94.4%. It also gave an activity at 0.5 µM (monocytes (monocyte-lin); dose 500 nM, 6 days, normalized to vehicle control, read-out: Mon normalized cell count) of 99.9%, an activity at 2.5 µM (monocytes (monocyte-lin); dose 2500 nM, 6 days, normalized to vehicle control, read-out: Mon normalized cell count) of 97.3% and an Emax (monocytes (monocyte-lin); parameter from QSP model fitting, read-out: Emax_drug_Mono) of 0.00608%. It also gave an activity at 0.0002 µM ([4]; dose 0.2 nM, 6 days, normalized to vehicle control, read-out: LymP normalized cell count) of 109%, an activity at 0.001 µM ([4]; dose 1 nM, 6 days, normalized to vehicle control, read-out: LymP normalized cell count) of 105% and an activity at 0.005 µM ([4]; dose 5 nM, 6 days, normalized to vehicle control, read-out: LymP normalized cell count) of 123%. The activity at 0.025 µM ([4]; dose 25 nM, 6 days, normalized to vehicle control, read-out: LymP normalized cell count) was 126%, the activity at 0.1 µM ([4]; dose 100 nM, 6 days, normalized to vehicle control, read-out: LymP normalized cell count) was 94.6% and the activity at 0.5 µM ([4]; dose 500 nM, 6 days, normalized to vehicle control, read-out: LymP normalized cell count) was 76.6%. It also gave an activity at 2.5 µM ([4]; dose 2500 nM, 6 days, normalized to vehicle control, read-out: LymP normalized cell count) of 139%, an Emax ([4]; parameter from QSP model fitting, read-out: Emax_drug_LymP) of 0.0064% and an activity at 0.0002 µM (B cells (B-lin); dose 0.2 nM, 6 days, normalized to vehicle control, read-out: B-lin normalized cell count) of 90.8%. The activity at 0.001 µM (B cells (B-lin); dose 1 nM, 6 days, normalized to vehicle control, read-out: B-lin normalized cell count) was 99.6%, the activity at 0.005 µM (B cells (B-lin); dose 5 nM, 6 days, normalized to vehicle control, read-out: B-lin normalized cell count) was 108% and the activity at 0.025 µM (B cells (B-lin); dose 25 nM, 6 days, normalized to vehicle control, read-out: B-lin normalized cell count) was 116%. For the same compound, the activity at 0.1 µM (B cells (B-lin); dose 100 nM, 6 days, normalized to vehicle control, read-out: B-lin normalized cell count) was 93%, the activity at 0.5 µM (B cells (B-lin); dose 500 nM, 6 days, normalized to vehicle control, read-out: B-lin normalized cell count) was 91.5% and the activity at 2.5 µM (B cells (B-lin); dose 2500 nM, 6 days, normalized to vehicle control, read-out: B-lin normalized cell count) was 104%. The Emax (B cells (B-lin); parameter from QSP model fitting, read-out: Emax_drug_B) was 0.24%, the activity at 0.0002 µM ([5]; dose 0.2 nM) was 91.6% and the activity at 0.001 µM ([5]; dose 1 nM) was 109%. For the same compound, the activity at 0.005 µM ([5]; dose 5 nM) was 96.3%, the activity at 0.025 µM ([5]; dose 25 nM) was 120% and the activity at 0.1 µM ([5]; dose 100 nM) was 113%. It also gave an activity at 0.5 µM ([5]; dose 500 nM) of 105% and an activity at 2.5 µM ([5]; dose 2500 nM) of 99.8%.
